Values of other authors in patent US20190290478A1, “MEDICINAL HERBAL COMPOSITION FOR EYE APPLICATION” (priority 2018, published 2019).

Columns and labels:
[1] = test system: HCECs exposed to hyperosmotic stress
murine dry eye = conditions: 10 mM betaine compared with placebo on the 14, 21, 35 days

C[N+](C)(C)CC(=O)O [betaine]
inflammatory response via TRPV1 pathway [1]: suppress inflammatory response | dry eye's symptom (murine dry eye): significantly reduced
